# Experimental data taken from PMC4319572 (Structure (London, England : 1993), 2015).
# T1: Rgd1p F-BAR domain (residues 1-324) (Saccharomyces cerevisiae, UniProt P38339, R141D)
# T1 sequence (P38339 1-324 R141D): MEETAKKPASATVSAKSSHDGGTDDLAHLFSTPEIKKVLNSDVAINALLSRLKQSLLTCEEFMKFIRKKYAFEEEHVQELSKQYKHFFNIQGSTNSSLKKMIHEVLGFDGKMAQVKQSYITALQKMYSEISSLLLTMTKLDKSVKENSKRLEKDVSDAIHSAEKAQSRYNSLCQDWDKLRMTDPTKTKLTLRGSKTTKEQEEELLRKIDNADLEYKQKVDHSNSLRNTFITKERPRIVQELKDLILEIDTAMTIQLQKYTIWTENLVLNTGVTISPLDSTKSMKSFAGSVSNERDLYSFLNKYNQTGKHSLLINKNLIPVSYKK
# T2: Rgd1p F-BAR domain (residues 1-324) (Saccharomyces cerevisiae, UniProt P38339, R141D/K142E)
# T2 sequence (P38339 1-324 R141D/K142E): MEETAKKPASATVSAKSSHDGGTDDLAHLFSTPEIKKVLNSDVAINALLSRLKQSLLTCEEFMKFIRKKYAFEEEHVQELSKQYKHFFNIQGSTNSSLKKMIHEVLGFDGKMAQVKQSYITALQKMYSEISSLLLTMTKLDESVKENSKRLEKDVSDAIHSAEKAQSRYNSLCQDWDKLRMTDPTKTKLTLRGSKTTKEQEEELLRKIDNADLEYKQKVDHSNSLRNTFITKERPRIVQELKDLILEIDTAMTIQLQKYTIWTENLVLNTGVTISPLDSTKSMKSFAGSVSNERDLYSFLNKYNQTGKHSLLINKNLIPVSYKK
# T3: Rgd1p F-BAR domain (residues 1-324) (Saccharomyces cerevisiae, UniProt P38339, R141D/K145E)
# T3 sequence (P38339 1-324 R141D/K145E): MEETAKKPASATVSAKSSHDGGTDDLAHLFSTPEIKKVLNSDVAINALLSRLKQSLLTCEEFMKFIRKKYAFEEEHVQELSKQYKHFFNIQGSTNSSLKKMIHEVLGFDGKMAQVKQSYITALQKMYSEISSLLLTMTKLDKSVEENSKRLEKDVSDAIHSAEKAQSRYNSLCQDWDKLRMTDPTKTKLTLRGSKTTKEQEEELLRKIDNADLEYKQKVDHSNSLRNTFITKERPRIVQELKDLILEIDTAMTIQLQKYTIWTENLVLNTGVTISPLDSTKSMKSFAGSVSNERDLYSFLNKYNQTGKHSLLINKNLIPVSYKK
# T4: Rgd1p F-BAR domain (residues 1-324) (Saccharomyces cerevisiae, UniProt P38339, K149E/K153E)
# T4 sequence (P38339 1-324 K149E/K153E): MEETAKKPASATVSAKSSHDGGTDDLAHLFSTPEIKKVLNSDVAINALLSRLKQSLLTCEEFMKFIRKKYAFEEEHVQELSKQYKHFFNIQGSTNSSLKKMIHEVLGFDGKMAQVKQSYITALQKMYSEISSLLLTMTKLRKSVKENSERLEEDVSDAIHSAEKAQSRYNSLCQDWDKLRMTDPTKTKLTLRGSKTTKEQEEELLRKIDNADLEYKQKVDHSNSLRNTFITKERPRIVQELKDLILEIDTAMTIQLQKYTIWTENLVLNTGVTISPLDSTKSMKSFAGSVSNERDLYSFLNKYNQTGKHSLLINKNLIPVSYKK
# T5: Rgd1p F-BAR domain (residues 1-324) (Saccharomyces cerevisiae, UniProt P38339)
# T5 sequence (P38339 1-324): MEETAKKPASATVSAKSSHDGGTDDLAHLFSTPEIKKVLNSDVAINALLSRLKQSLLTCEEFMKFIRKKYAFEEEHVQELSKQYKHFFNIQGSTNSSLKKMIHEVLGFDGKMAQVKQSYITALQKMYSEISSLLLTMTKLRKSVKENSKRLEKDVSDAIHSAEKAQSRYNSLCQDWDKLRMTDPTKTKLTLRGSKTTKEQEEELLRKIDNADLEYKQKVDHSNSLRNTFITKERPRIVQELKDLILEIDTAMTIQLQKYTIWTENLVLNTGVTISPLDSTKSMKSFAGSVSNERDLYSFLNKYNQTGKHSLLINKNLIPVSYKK
# Experiments:
# [1] = molecular target: T1, Rgd1p F-BAR domain (residues 1-324); assay: surface plasmon resonance; assay type: binding; conditions: 30 μM protein over 10% (mole/mole) PtdIns(4,5)P2 in DOPC
# [2] = molecular target: T2, Rgd1p F-BAR domain (residues 1-324); assay: surface plasmon resonance; assay type: binding; conditions: 30 μM protein over 10% (mole/mole) PtdIns(4,5)P2 in DOPC
# [3] = molecular target: T3, Rgd1p F-BAR domain (residues 1-324); assay: surface plasmon resonance; assay type: binding; conditions: 30 μM protein over 10% (mole/mole) PtdIns(4,5)P2 in DOPC
# [4] = molecular target: T4, Rgd1p F-BAR domain (residues 1-324); assay: surface plasmon resonance; assay type: binding; conditions: 30 μM protein over 10% (mole/mole) PtdIns(4,5)P2 in DOPC
# [5] = molecular target: T5, Rgd1p F-BAR domain (residues 1-324); assay: competition off PtdIns; assay type: binding; conditions: membranes with 10% (mole/mole) PtdIns(4,5)P2; competitive
# crystal structure = molecular target: the molecule itself; assay: crystal structure
# AUC = molecular target: the molecule itself; assay: AUC
Molecule,competition [5],stoichiometry N (crystal structure),other results
"CCCCCCCC/C=C\CCCCCCCC(=O)OC[C@H](COP(=O)(O)O[C@@H]1[C@H](O)[C@H](O)[C@@H](OP(=O)(O)O)[C@H](OP(=O)(O)O)[C@H]1O)OC(=O)CCCCCCC/C=C\CCCCCCCC [dioleoyl-PtdIns(4,5)P2]",,,% reduction of binding vs wild type at 30 μM protein [1]: > 75%; binding relative to wild type [2]: as seen for R141D/K142E and R141D/K145E doubly-mutated variants; binding relative to wild type [3]: as seen for R141D/K142E and R141D/K145E doubly-mutated variants; binding relative to wild type [4]: Glutamate substitutions at K149 and K153
"O=P(O)(O)O[C@H]1[C@H](O)[C@@H](O)[C@H](OP(=O)(O)O)[C@@H](OP(=O)(O)O)[C@H]1O [isolated headgroup of PtdIns(3,4)P2]",isolated headgroups of these three phosphoinositides were equally potent in their ability to compete,,
"O=P(O)(O)O[C@H]1[C@H](O)[C@@H](OP(=O)(O)O)[C@H](O)[C@@H](OP(=O)(O)O)[C@H]1O [isolated headgroup of PtdIns(3,5)P2]",isolated headgroups of these three phosphoinositides were equally potent in their ability to compete,,
"O=P(O)(O)O[C@@H]1[C@H](O)[C@H](O)[C@@H](OP(=O)(O)O)[C@H](OP(=O)(O)O)[C@H]1O [isolated headgroup of PtdIns(4,5)P2]",isolated headgroups of these three phosphoinositides were equally potent in their ability to compete,,
"Rgd1p F-BAR domain (residues 24-333) (domain or fragment, S. cerevisiae, UniProt P38339 24-333, looked up) DDLAHLFSTPEIKKVLNSDVAINALLSRLKQSLLTCEEFMKFIRKKYAFEEEHVQELSKQYKHFFNIQGSTNSSLKKMIHEVLGFDGKMAQVKQSYITALQKMYSEISSLLLTMTKLRKSVKENSKRLEKDVSDAIHSAEKAQSRYNSLCQDWDKLRMTDPTKTKLTLRGSKTTKEQEEELLRKIDNADLEYKQKVDHSNSLRNTFITKERPRIVQELKDLILEIDTAMTIQLQKYTIWTENLVLNTGVTISPLDSTKSMKSFAGSVSNERDLYSFLNKYNQTGKHSLLINKNLIPVSYKKHPSMNHGQK",,2,
"Hof1p F-BAR domain (residues 1-300) (domain or fragment, S. cerevisiae, UniProt Q05080 1-300, looked up, selenomethionine (SeMet) in the protein used for the crystals) MSYSYEACFWDPNDNGVNILLGHISQGIRSCDSMILFFKQRSELEKDYARRLGAITGKLDKDIGTNMDYGKLNETFNVVLSVEKARAQSHSKQSEILFRQIYTDTKAFAANLQARYTTLSGKIERLRMDKFNKKKGCEVLQKKLQDAQIRFRDLQLNENNMIGAKRVEHNKRELLKWESNSQEYKVQLDVLKQEYKASQKFWIHEWAQLSCELQEMENARISFLQSKLQQFATSSMETYILEQTKMDMLTNHLNSFTAADEISTFSKENGTGRLKHKTSKGDMNSSANWAQMSSISTTSK",,2,Kd (AUC): ~3000 nM
